Measured values from US11959104B2, “Methods of differentiating stem cell-derived ectodermal lineage precursors” (MEMORIAL SLOAN-KETTERING CANCER CENTER, priority 2016, dated 2024).

Key:
hPSCs = assay: Toxicity of KSR-protocol small molecule concentrations in E6 differentiation; assay type: cell-based, human; details: original KSR-protocol concentration used in E6
Source text: To transition these protocols into the more defined E6 media, we adapted hPSCs in E8 for multiple passages and simply replaced the KSR-based medium with an E6 based differentiation while maintaining factors and concentrations as described previously to trigger the 4 major ectodermal lineages (FIG. 9A). […] After determining an optimal non-toxic concentration for each of the small molecules we observed that NE formation under E6 conditions was equivalent to that obtained with KSR-based conditions. […] We compared the efficiency of generating PAX6 positive cells using either no small molecules, using dSMADi or using the single TGFβ inhibitor SB431542 (SB). We found robust PAX6 expression in the absence of dSMADi (˜40% of total cells on day 12 post induction). However, the percentage of cells expressing PAX6 was further improved upon addition of SB or dSMADi to nearly 90% and 80%, respectively (FIGS. 1E and 9B).

SIX1 placode cells = assay: Trigeminal placode induction by Wnt activation pulse; assay type: cell-based, human; details: additional pulse after the BMP pulse
Description: (§1) All differentiations starting from E8 were dissociated into single cells using EDTA and replated at high density in E8 with the ROCK inhibitor (Tocris). Cells were typically seeded at a density of 200,000 cells/cm^2 on Matrigel coated dishes. Switching from E8 to E6 triggered differentiations (i.e. d0). Neuroectoderm (NE) formation was generated by culturing the cells in E6 with […] and 500 nM LDN until d12. Neural Crest (NC) was first treated with […], 600 nM CHIR and 1 ng/ml BMP4 from d0-d2. At d2, cells were maintained in […] with 1.5 uM CHIR until d12. Lens placode was first treated with […] and 5 ng/ml BMP4 from d0-d2. At d2, cells were maintained in […] with 100 ng/ml FGF2 until d12. Trigeminal placode was first treated with […] and 5 ng/ml BMP4 from d0-d2. At d2, CHIR was added to the SB and BMP4 until d4. Finally, non-neural ectoderm (NNE) was treated with 10 nM SB, 10 nM SU5402 and 20 ng/ml BMP4 until d12.

rodent GSK3β homologs = details: cited from earlier work
[1] = tested on: human pluripotent stem cells; assay: Neuroectoderm induction in E6 media, PAX6 positive cells (PAX6::H2B-GFP reporter); assay type: cell-based; details: day 12 post induction, without small molecules ~40%
Description: as §1, with “H9 ESCs (WA09) and modified reporter lines (passage 40-70) were cultured in the Knockout Serum Replacement (KSR) (Life Technologies) based media (DMEM-F12, 20% KSR, L-glutamate and 10 ng/ml FGF2) on mouse embryonic fibroblast feeders. KSR hPSCs were directly transferred to the E8 media (Life Technologies) coated with Vitronectin and adapted for 4-5 passages before differentiations were performed. KSR based differentiations were performed as previously described, neuroectoderm and neural crest (Mica et al., 2013), and placode and non-neural ectoderm ([…] et al., 2013). All” for “All”, “At d2, CHIR was added to the SB and BMP4 until d4. Finally, non-neural ectoderm (NNE) was treated with 10 nM SB, 10 nM SU5402 and 20 ng/ml BMP4 until d12.” left out

hPSC = assay: Cranial placode induction in E6 media, SIX1 positive cells, FGF addition; assay type: cell-based, human; details: added to E6 culture comprising SB431542 and BMP
Description: as §1

[2] = tested on: Six1::H2B-GFP reporter line; assay: LOPAC small molecule screen and validation for enhanced CP induction; details: CP protocol after the addition of FGF2
Description: All differentiations starting from E8 were dissociated into single cells using EDTA and replated at high density in E8 with the ROCK inhibitor (Tocris). Cells were typically seeded at a density of 200,000 cells/cm^2 on Matrigel coated dishes. Switching from E8 to E6 triggered differentiations (i.e. d0). Neuroectoderm (NE) formation was generated by culturing the cells in E6 with 10 nM SB and 500 nM LDN until d12. Neural Crest (NC) was first treated with 10 nM SB, 600 nM CHIR and 1 ng/ml BMP4 from d0-d2. […] Lens placode was first treated with 10 nM SB and 5 ng/ml BMP4 from d0-d2. At d2, cells were maintained in 10 nM SB with 100 ng/ml FGF2 until d12. Trigeminal placode was first treated with 10 nM SB and 5 ng/ml BMP4 from d0-d2. At d2, CHIR was added to the SB and BMP4 until d4. Finally, non-neural ectoderm (NNE) was treated with 10 nM SB, 10 nM SU5402 and 20 ng/ml BMP4 until d12.

Cc1c[nH]c(-c2cnc(NCCNc3ccc(C#N)cn3)nc2-c2ccc(Cl)cc2Cl)n1 [CHIR99021, 6-(2-(4-(2,4-dichlorophenyl)-5-(4-methyl-1H-imidazol-2-yl)pyrimidin-2-ylamino)ethylamino)nicotinonitrile]
cell killing during differentiation (hPSCs): effectively killed the cells
PAX3 expression in SIX1 placode cells (SIX1 placode cells): capable of triggering PAX3 expression
IC50 values against rodent GSK3β homologs (rodent GSK3β homologs): nanomolar

NC(=O)c1ccc(-c2nc(-c3ccc4c(c3)OCO4)c(-c3ccccn3)[nH]2)cc1 [SB431542, 4-[4-(1,3-benzodioxol-5-yl)-5-(2-pyridinyl)-1H-imidazol-2-yl]-benzamide]
percentage of cells expressing PAX6 [1]: ~90%

FGF2: activator of FGF signaling
SIX1 positive CP cells (hPSC): ~50%
Six1 positive cells [2]: 34%
